Source: BindingDB's records for doi:10.3109/14756366.2013.765415 (Universidad de la República, 2014)
pIC50: −log10 of the molar value.

Legend:
[1] = target: Triosephosphate isomerase (Homo sapiens, UniProt P60174); assay: Inhibition Assay; conditions: pH 7.4; 37 °C
Description: (§1) The reaction mixture (1 mL, pH 7.4) contained 100mM triethanolamine, 10mM EDTA, 0.2mM NADH, 1mM glyceraldehyde 3-phosphate (GAP) and 0.9 units of α-glycerol phosphate dehydrogenase (α-GPDH). The reaction was initiated by addition of 5 ng/mL of the corresponding TIM or the corresponding TIM pre-incubated with the studied compounds. In these cases, inhibition assays, the enzymes were pre-incubated for 2 h at 37 °C with the studied compounds.

[2] = target: Triosephosphate isomerase, glycosomal (Trypanosoma brucei brucei, UniProt P04789); assay: Inhibition Assay; conditions: pH 7.4; 37 °C
Description: as §1

Sequence of Triosephosphate isomerase, glycosomal (P04789 whole entry): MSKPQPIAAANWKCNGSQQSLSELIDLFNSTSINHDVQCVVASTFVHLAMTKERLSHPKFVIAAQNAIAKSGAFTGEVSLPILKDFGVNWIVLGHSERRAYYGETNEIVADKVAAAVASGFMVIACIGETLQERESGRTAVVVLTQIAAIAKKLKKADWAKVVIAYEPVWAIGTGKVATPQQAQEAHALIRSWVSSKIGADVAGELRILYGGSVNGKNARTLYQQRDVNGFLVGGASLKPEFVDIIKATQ

Oc1ccc2nc3cc(Cl)c(Cl)cc3nc2c1 [TIM inhibitor, 2]
pIC50 [1]: < 4.00

O=C1C(=Cc2ccc([N+](=O)[O-])o2)C(=O)N(Cc2ccccc2)SN1Cc1ccccc1 [TIM inhibitor, 3]
pIC50 [2]: 4.47 | pIC50 [1]: < 4.00

Cc1ccc(-c2nsc(=O)[nH]2)cc1 [TIM inhibitor, 1]
pIC50 [1]: 4.00
